A value given as a limit tells only on which side of the number the result lay.

We go through 9 molecules from patent US11142515B2, “Pyrazolyl-ureas as kinase inhibitors” (RESPIVERT LIMITED, priority 2014, dated 2021).

The target of one data set is T1, Syk (Homo sapiens, UniProt P43405).
T1 construct: purchased Life Technologies
Briefly: Syk enzyme inhibition (Z-LYTE FRET). The data set is classed as biochemical. The conditions noted are these: Table 2A. The procedure, abridged: (§1)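 Z-LYTE readout: coumarin-to-fluorescein ratio after 1 h protease cleavage of unphosphorylated peptide. Kinase reactions ran 1 h at RT with ATP stock at 800 μM (c-Src) or 60 μM (Hck, Syk), following 2 h compound preincubation over 0.0012–40 μg/mL; enzyme stocks 1000/1400/2000 ng/mL.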

Another data set deals with d-U937 cells. Description: Cell viability: MTT assay in differentiated U937 cells. Format: cell-based, human. The conditions noted are these: 10 μg/mL. Put shortly: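 Viability loss, calculated against 0.5% DMSO vehicle (gains reported negative), was measured by MTT reduction (1 h) and A550 after DMSO solubilisation. Compound exposure of d-U937 cells was 10 μg/mL final, for 24 h in 10% FCS or 4 h in 5% FCS RPMI1640.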

The target of the next data set is T2, c-Src (Homo sapiens, UniProt P12931).
T2 construct: purchased Life Technologies
Briefly: c-Src enzyme inhibition (Z-LYTE FRET). To be noted: Table 2A. Format: biochemical. Put shortly:
as §1

In the next data set the target is T3, p38MAPKγ (MAPK12) (Homo sapiens, UniProt P53778).
T3 construct: purchased Life Technologies
T3 sequence (P53778 1-367): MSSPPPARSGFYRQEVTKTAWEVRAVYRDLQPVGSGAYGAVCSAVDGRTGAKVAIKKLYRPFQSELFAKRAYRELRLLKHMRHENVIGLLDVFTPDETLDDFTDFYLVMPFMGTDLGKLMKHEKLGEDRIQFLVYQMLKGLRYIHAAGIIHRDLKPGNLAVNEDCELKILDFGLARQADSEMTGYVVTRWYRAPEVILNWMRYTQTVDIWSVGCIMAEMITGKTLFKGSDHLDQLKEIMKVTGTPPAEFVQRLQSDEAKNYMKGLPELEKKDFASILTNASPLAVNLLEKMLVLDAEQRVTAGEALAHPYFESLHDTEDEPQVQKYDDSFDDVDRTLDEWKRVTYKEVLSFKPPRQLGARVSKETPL
Description: p38 MAPKγ enzyme inhibition (Z-LYTE FRET). The conditions noted are these: Table 2A; read-out: IC50 Values for Enzyme Inhibition p38 MAPKγ. Format: biochemical. The procedure, abridged:
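Enzyme (added at 800 ng/mL) was preincubated 2 h at RT with compound (solutions of 40 to 0.0012 μg/mL), then FRET peptide (8 μM) and ATP (400 μM), both as added, were reacted 1 h at RT. Protease development followed for 1 h; phosphorylation was read as the coumarin/fluorescein emission ratio.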

For the next data set, the target named is T4, Hck (Homo sapiens, UniProt P08631).
T4 construct: purchased Life Technologies
Description: Hck enzyme inhibition (Z-LYTE FRET). Format: biochemical. To be noted: Table 2A. The procedure, abridged: as §1

The subject of data set [1] is ICAM-1 expression in BEAS2B cells. Briefly: Poly I:C-induced ICAM-1 expression in BEAS2B cells. The conditions noted are these: Homo sapiens, BEAS-2B, read-out: PolyIC/ICAM1 IC50 (BEAS2B). Format: cell-based. The procedure, abridged:
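ICAM-1 readout: cell-based ELISA at 18 h post-transfection, OD450-655 divided by crystal violet OD595 per well. Stimulus was Oligofectamine-delivered Poly I:C (1 μg/mL) as RNA-virus mimic in BEAS2B cells, with compound added 2 h beforehand. Percent inhibition versus vehicle.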

T4 sequence (P08631 22-526): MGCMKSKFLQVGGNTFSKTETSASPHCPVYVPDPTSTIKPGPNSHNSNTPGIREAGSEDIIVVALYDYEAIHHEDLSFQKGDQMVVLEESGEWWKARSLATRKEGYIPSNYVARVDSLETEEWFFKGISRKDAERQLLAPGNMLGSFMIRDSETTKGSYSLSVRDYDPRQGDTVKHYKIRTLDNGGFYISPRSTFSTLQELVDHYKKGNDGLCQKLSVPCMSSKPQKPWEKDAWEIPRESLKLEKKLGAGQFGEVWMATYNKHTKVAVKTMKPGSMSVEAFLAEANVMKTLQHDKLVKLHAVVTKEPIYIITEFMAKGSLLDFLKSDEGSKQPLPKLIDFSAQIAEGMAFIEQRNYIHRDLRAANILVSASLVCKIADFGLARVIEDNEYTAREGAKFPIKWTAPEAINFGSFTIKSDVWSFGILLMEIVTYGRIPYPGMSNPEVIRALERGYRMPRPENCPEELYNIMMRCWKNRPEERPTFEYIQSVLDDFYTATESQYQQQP
T2 sequence (P12931 whole entry): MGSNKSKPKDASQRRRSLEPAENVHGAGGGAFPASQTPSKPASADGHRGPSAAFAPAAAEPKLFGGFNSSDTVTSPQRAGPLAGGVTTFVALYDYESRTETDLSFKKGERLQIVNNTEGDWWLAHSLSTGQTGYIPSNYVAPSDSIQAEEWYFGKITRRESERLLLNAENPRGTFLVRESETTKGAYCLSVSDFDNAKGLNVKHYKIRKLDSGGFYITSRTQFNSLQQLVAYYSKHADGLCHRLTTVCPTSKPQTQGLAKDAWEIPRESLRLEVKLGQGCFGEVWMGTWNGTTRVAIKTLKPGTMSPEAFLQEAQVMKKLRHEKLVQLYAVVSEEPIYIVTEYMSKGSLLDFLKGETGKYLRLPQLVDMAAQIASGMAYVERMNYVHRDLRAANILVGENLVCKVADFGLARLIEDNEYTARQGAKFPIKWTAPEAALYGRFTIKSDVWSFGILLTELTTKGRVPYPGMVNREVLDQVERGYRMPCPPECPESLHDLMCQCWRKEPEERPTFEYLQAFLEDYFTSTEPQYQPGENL

On to `Cc1cc(-n2nc(C(C)(C)C)cc2NC(=O)Nc2ccc(OCc3ccnc(Nc4cncc(C5CC5)n4)c3)c3ccccc23)cs1` [Example 27], for which the IC50 at Syk turned out to be 9160 nM; against c-Src, 42 nM; at p38MAPKγ (MAPK12) it was 376 nM; against Hck, 13 nM; in data set [1], 71.2 nM. For the same molecule, the “MTT Assay Cell viability at time point indicated in d-U937 Cells, 4 h” value (shortened to “MTT Assay Cell viability … in d-U937 Cells, 4 h”) in the data set on d-U937 cells is “− (−ve and +ve indicate the value is below and above, respectively, the no significant effect threshold defined as 30% inhibition at 10 μg/mL at the time point indicated)”. The “MTT Assay Cell viability at time point indicated in d-U937 Cells, 24 h” value (shortened to “MTT Assay Cell viability … 24 h”) in the data set on d-U937 cells is “+ (−ve and +ve indicate the value is below and above, respectively, the no significant effect threshold defined as 30% inhibition at 10 μg/mL at the time point indicated)”.

On to `CNC(=O)Cc1cncc(Nc2cc(COc3ccc(NC(=O)Nc4cc(C(C)(C)C)nn4-c4ccc(C)cc4)c4ccccc34)ccn2)n1` [Example 28], for which the IC50 is over 14900 nM against Syk; 32 nM on c-Src; 106 nM at p38MAPKγ (MAPK12); 11 nM against Hck; 75.5 nM in data set [1]. Moreover, in the data set on d-U937 cells, the “MTT Assay Cell viability … in d-U937 Cells, 4 h” value is “− (−ve and +ve indicate the value is below and above, respectively, the no significant effect threshold defined as 30% inhibition at 10 μg/mL at the time point indicated)”. Also, the “MTT Assay Cell viability … 24 h” value in the data set with d-U937 cells is “+ (−ve and +ve indicate the value is below and above, respectively, the no significant effect threshold defined as 30% inhibition at 10 μg/mL at the time point indicated)”.

Regarding `Cc1ccc(-n2nc(C(C)(C)C)cc2NC(=O)Nc2ccc(OCc3ccnc(Nc4cnc(CC(=O)N(C)C)cn4)c3)c3ccccc23)cc1` [Example 29], the IC50 against Syk is over 14600 nM; at c-Src, 28 nM; at p38MAPKγ (MAPK12), 80 nM; at Hck, 10 nM; in data set [1], 43 nM. Further, in the data set on d-U937 cells, the “MTT Assay Cell viability … in d-U937 Cells, 4 h” value is “− (−ve and +ve indicate the value is below and above, respectively, the no significant effect threshold defined as 30% inhibition at 10 μg/mL at the time point indicated)”. Besides, in the data set with d-U937 cells, the “MTT Assay Cell viability … 24 h” value is “+ (−ve and +ve indicate the value is below and above, respectively, the no significant effect threshold defined as 30% inhibition at 10 μg/mL at the time point indicated)”.

In the case of `Cc1ccc(-n2nc(C(C)(C)C)cc2NC(=O)Nc2ccc(OCc3ccnc(Nc4cnc(CC(N)=O)cn4)c3)c3ccccc23)cc1` [Example 30], the IC50 against Syk was over 15200 nM; at c-Src, 19 nM; on p38MAPKγ (MAPK12), 29 nM; against Hck, 6 nM; in data set [1] it was 115 nM. Moreover, in the data set with d-U937 cells, the “MTT Assay Cell viability … in d-U937 Cells, 4 h” value was “− (−ve and +ve indicate the value is below and above, respectively, the no significant effect threshold defined as 30% inhibition at 10 μg/mL at the time point indicated)”. In the data set with d-U937 cells, the “MTT Assay Cell viability … 24 h” value is “− (−ve and +ve indicate the value is below and above, respectively, the no significant effect threshold defined as 30% inhibition at 10 μg/mL at the time point indicated)”.

For `Cc1ccc(-n2nc(C(C)(C)C)cc2NC(=O)Nc2ccc(OCc3ccnc(Nc4cncc(CC(N)=O)n4)c3)c3ccccc23)cc1` [Example 32], the IC50 against Syk was over 15200 nM; at c-Src, 25 nM; on p38MAPKγ (MAPK12), 37 nM; on Hck, 7 nM; in data set [1], 65.6 nM. Further, in the data set with d-U937 cells, the “MTT Assay Cell viability … in d-U937 Cells, 4 h” value is “− (−ve and +ve indicate the value is below and above, respectively, the no significant effect threshold defined as 30% inhibition at 10 μg/mL at the time point indicated)”. For the same molecule, the “MTT Assay Cell viability … 24 h” value with d-U937 cells was “− (−ve and +ve indicate the value is below and above, respectively, the no significant effect threshold defined as 30% inhibition at 10 μg/mL at the time point indicated)”.

For the molecule `CNC(=O)Cc1cnc(Nc2cc(COc3ccc(NC(=O)Nc4cc(C(C)(C)C)nn4-c4ccc(C)cc4)c4ccccc34)ccn2)cn1` [Example 33], the IC50 on Syk was over 14900 nM; against c-Src, 35 nM; at p38MAPKγ (MAPK12), 53 nM; against Hck it was 11 nM; in data set [1] it was 150 nM. Besides, in the data set on d-U937 cells, the “MTT Assay Cell viability … in d-U937 Cells, 4 h” value is “− (−ve and +ve indicate the value is below and above, respectively, the no significant effect threshold defined as 30% inhibition at 10 μg/mL at the time point indicated)”. For the same molecule, the “MTT Assay Cell viability … 24 h” value in the data set with d-U937 cells is “− (−ve and +ve indicate the value is below and above, respectively, the no significant effect threshold defined as 30% inhibition at 10 μg/mL at the time point indicated)”.

Turning to `CC(C)(C)c1cc(NC(=O)Nc2ccc(OCc3ccnc(Nc4cncc(C5CC5)n4)c3)c3ccccc23)n(-c2ccc(O)cc2)n1` [Example 34], the IC50 came out at 4260 nM at Syk; 18 nM against c-Src; 274 nM on p38MAPKγ (MAPK12); 7 nM on Hck; 41.1 nM in data set [1]. Besides, the “MTT Assay Cell viability … in d-U937 Cells, 4 h” value with d-U937 cells is “− (−ve and +ve indicate the value is below and above, respectively, the no significant effect threshold defined as 30% inhibition at 10 μg/mL at the time point indicated)”. For the same molecule, the “MTT Assay Cell viability … 24 h” value in the data set with d-U937 cells was “− (−ve and +ve indicate the value is below and above, respectively, the no significant effect threshold defined as 30% inhibition at 10 μg/mL at the time point indicated)”.

For the molecule `Cc1ccc(-n2nc(C(C)(C)C)cc2NC(=O)Nc2ccc(OCc3ccnc(Nc4cnc(C(=O)N5CCOCC5)cn4)c3)c3ccccc23)cc1` [Example 35], the IC50 at Syk was over 14000 nM; at c-Src, 51 nM; on p38MAPKγ (MAPK12), 171 nM; at Hck, 42 nM; in data set [1], 113 nM. Besides, the “MTT Assay Cell viability … in d-U937 Cells, 4 h” value with d-U937 cells was “− (−ve and +ve indicate the value is below and above, respectively, the no significant effect threshold defined as 30% inhibition at 10 μg/mL at the time point indicated)”. Besides, the “MTT Assay Cell viability … 24 h” value in the data set with d-U937 cells was “− (−ve and +ve indicate the value is below and above, respectively, the no significant effect threshold defined as 30% inhibition at 10 μg/mL at the time point indicated)”.

For the molecule `Cc1ccc(-n2nc(C(C)(C)C)cc2NC(=O)Nc2ccc(OCc3ccnc(Nc4cnc(C(=O)N5CCCC5)cn4)c3)c3ccccc23)cc1` [Example 36], the IC50 on Syk is over 14400 nM; against c-Src it was 61 nM; at p38MAPKγ (MAPK12), 1070 nM; against Hck it was 48 nM; in data set [1], 188 nM. Also, the “MTT Assay Cell viability … in d-U937 Cells, 4 h” value with d-U937 cells was “− (−ve and +ve indicate the value is below and above, respectively, the no significant effect threshold defined as 30% inhibition at 10 μg/mL at the time point indicated)”. For the same molecule, the “MTT Assay Cell viability … 24 h” value in the data set on d-U937 cells was “− (−ve and +ve indicate the value is below and above, respectively, the no significant effect threshold defined as 30% inhibition at 10 μg/mL at the time point indicated)”.
